The values below come from US20130035515A1, “LIGNOCELLULOSIC HYDROLYSATES AS FEEDSTOCKS FOR ISOBUTANOL FERMENTATION” (priority 2011, published 2013).

Assay [1] relates to PNY1504. Put plainly: Fermentation of xylose to isobutanol by PNY1504 in defined medium with xylose isomerase, with or without antimycin A. The class given is cell-based, Saccharomyces cerevisiae. As to the method: (§1) Strain PNY1504 was pre-cultured in the defined medium SC-GE as described above, except that the medium was buffered to pH 6. Production cultures used the same SC medium, except either glucose or xylose was added to a final concentration of 35 g/L, and penicillin G (Sigma P3032) was added at 25 μg/ml.
Unless it is genetically engineered to do so, S. cerevisiae is unable to ferment xylose, but it is able to ferment xylulose. In order to test whether xylose is available for fermentation to isobutanol, it was converted to xylulose in situ by xylose isomerase (10 g/L; Sigma G4166) essentially as described in Lastick S. M., et al., Applied Microbiology and Biotechnology 30:574-579 (1989), Wang P. Y., et al., Biotechnology Letters 2:273-278 (1980) and Chandrakant P & Bisaria V S, Appl Microbiol Biotechnol 53:301-309 (2000).
(§2) Xylulose can be taken up by yeast and metabolized via the pentose phosphate pathway. […] Souto-Maior A M, et al., J Biotechnol. 143:119-23 (2009). Thus, in order to increase flux towards fermentative products, cultures were treated with the respiratory inhibitor antimycin A (1 μM; Sigma A8674).

The test system of assay [2] is PNY1504. Put plainly: Fermentation of glucose to isobutanol by PNY1504 in defined medium with or without antimycin A. The format is cell-based, Saccharomyces cerevisiae. The following applies: glucose 35 g/L. As to the method:
as §1, §2

Setting [3] is: antimycin A-treated culture (1 μM).

For the substance antimycin A, in assay [1] (antimycin A 1 μM), the “Effect on biomass accumulation” value is “reduce biomass accumulation slightly” and the “Effect on xylose consumption profile” value is “not significantly affected”. The Isobutanol production in assay [1] (antimycin A 1 μM, at 78 hours) is recorded as 0.5 g/L. Further, the Isobutanol yield in assay [1] (in the presence of antimycin A) came to 0.04 g/g. In assay [2] (antimycin A 1 μM), the “Time in which glucose (hexose) was consumed” value is no more than 24 h. In assay [2] (setting [3]), the Isobutanol titer was roughly 3.3 g/L and the Isobutanol yield entry is “approximately 0.08 g·g^−1”.
